Test results as given in patent US12157730B2, “Heteroaryl derivative, method for producing same, and pharmaceutical composition comprising same as effective component” (VORONOI INC., priority 2019, dated 2024).

Target: T1, Ba/F3 cell EGFR Exon20 ins NPH (Homo sapiens, UniProt P00533, INS773NPH)
T1 construct: expressed in transfected cells; host or cells: Ba/F3
Assay: Ba/F3 cell proliferation suppression, EGFR Exon20 ins NPH
Type: cell-based
Conditions: GI50 class; Ba/F3 cell line with NPH inserted at Exon20 of EGFR; 72 hours
Outline: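 After 72 h compound exposure (twelve 3-fold steps, 0.3 nM–50 um final), live cells were measured by CellTiter-Glo luminescence and growth expressed as % of control to derive GI50. Cells were seeded at 3000–5000 per well a day earlier; Ba/F3 medium contained IL-3; three repeats.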

Row | Compound | Ba/F3 (NPH) Activity
1 | C=CC(=O)Nc1cc(Nc2cc(N3OCC[C@@H]3c3cccc(Cl)c3Cl)ncn2)c(OC)cc1N1C[C@H]2C[C@@H]1CN2CC [compound 525, N-(5-((6-((R)-3-(2,3-dichlorophenyl)isoxazolidine-2-yl)pyrimidine-4-yl)amino)-2-((1R,4R)-5-ethyl-2,5-diazabicyclo[2.2.1]heptane-2-yl)-4-methoxyphenyl) acrylamide] | A (GI50 < 50 nM)
2 | C=CC(=O)Nc1cc(Nc2cc(N3OCC[C@@H]3c3cccc(F)c3)ncn2)c(OC)cc1N1CC[C@H](N2CCOCC2)C1 [compound 321, N-(5-((6-((R)-3-(3-fluorophenyl)isoxazolidine-2-yl)pyrimidine-4-yl)amino)-4-methoxy-2-((S)-3-morpholinopyrolidine-1-yl)phenyl)acrylamide] | B (50 nM ≤ GI50 < 500 nM)
3 | C=CC(=O)Nc1cc(Nc2cc(N3OCC[C@@H]3c3cc(F)cc(F)c3)ncn2)c(OC)cc1N1CC[C@@H](N2CCOCC2)C1 [Example 271, N-(5-((6-((R)-3-(3,5-difluorophenyl)isoxazolidine-2-yl)pyrimidine-4-yl)amino)-4-methoxy-2-((R)-3-morpholinopyrolidine-1-yl)phenyl)acrylamide] | B (50 nM ≤ GI50 < 500 nM)
4 | C=CC(=O)Nc1cc(Nc2cc(N3OCC[C@@H]3c3cc(F)ccc3F)ncn2)c(OC)cc1N1CCC(N2CCN(C(C)C)CC2)CC1 [compound 303, N-(5-((6-((R)-3-(2,5-difluorophenyl)isoxazolidine-2-yl)pyrimidine-4-yl)amino)-2-(4-(4-isopropylpiperazine-1-yl)piperidine-1-yl)-4-methoxyphenyl) acrylamide] | A (GI50 < 50 nM)
5 | C=CC(=O)Nc1cc(Nc2cc(N3OCC[C@@H]3c3cccc(F)c3Cl)ncn2)c(OC)cc1N1CCC(N2CCN(C3CCC3)CC2)CC1 [Example 192, N-(5-((6-((R)-3-(2-chloro-3-fluorophenyl)isoxazolidine-2-yl)pyrimidine-4-yl)amino)-2-(4-(4-cyclobutylpiperazine-1-yl)piperidine-1-yl)-4-methoxyphenyl) acrylamide] | A (GI50 < 50 nM)
6 | C=CC(=O)Nc1cc(Nc2cc(N3OCC[C@@H]3c3ccc(F)cc3)ncn2)c(OC)cc1N1CCC(N2CCN(C3CC3)CC2)CC1 [Example 66, N-(2-(4-(4-cyclopropylpiperazine-1-yl)piperidine-1-yl)-5-((6-((R)-3-(4-fluorophenyl)isoxazolidine-2-yl)pyrimidine-4-yl)amino)-4-methoxyphenyl) acrylamide] | A (GI50 < 50 nM)
7 | C=CC(=O)Nc1cc(Nc2cc(N3OCC[C@@H]3c3c(F)cccc3F)ncn2)c(OC)cc1N1CCC(N2CCN(C3CC3)[C@H](C)C2)CC1 [Example 137, N-(2-(4-((R)-4-cyclopropyl-3-methylpiperazine-1-yl)piperidine-1-yl)-5-((6-((R)-3-(2,6-difluorophenyl)isoxazolidine-2-yl)pyrimidine-4-yl)amino)-4-methoxyphenyl) acrylamide] | B (50 nM ≤ GI50 < 500 nM)
8 | C=CC(=O)Nc1cc(Nc2cc(N3OCC[C@@H]3c3ccccc3)ncn2)c(OC)cc1N1CCN(C2COC2)CC1 [Example 18] | A (GI50 < 50 nM)
9 | C=CC(=O)Nc1cc(Nc2cc(N3OCC[C@@H]3c3cc(F)cc(F)c3)ncn2)c(OC)cc1OCCC(C)(C)OC [compound 495, N-(5-((6-((R)-3-(3,5-difluorophenyl)isoxazolidine-2-yl)pyrimidine-4-yl)amino)-4-methoxy-2-(3-methoxy-3-methylbutoxy)phenyl) acrylamide] | A (GI50 < 50 nM)
10 | C=CC(=O)Nc1cc(Nc2cc(N3OCC[C@@H]3c3cccc(C#N)c3)ncn2)c(OC)cc1N1CCC(N2CCN(C3COC3)CC2)CC1 [Example 196, N-(5-((6-((R)-3-(3-cyanophenyl)isoxazolidine-2-yl)pyrimidine-4-yl)amino)-4-methoxy-2-(4-(4-(oxetane-3-yl)piperazine-1-yl)piperidine-1-yl)phenyl)acrylamide] | A (GI50 < 50 nM)
11 | C=CC(=O)Nc1cc(Nc2cc(N3OCC[C@@H]3c3ccc(F)cc3F)ncn2)c(OC)cc1N1CCC(N2CCN(CC)CC2)CC1 [compound 424, N-(5-((6-((R)-3-(2,4-difluorophenyl)isoxazolidine-2-yl)pyrimidine-4-yl)amino)-2-(4-(4-ethylpiperazine-1-yl)piperidine-1-yl)-4-methoxyphenyl) acrylamide] | A (GI50 < 50 nM)
12 | C=CC(=O)Nc1cc(Nc2cc(N3OCC[C@@H]3c3ccc(F)c(F)c3)ncn2)c(OC)cc1N(C)CCN(C)C [compound 457, N-(5-((6-((R)-3-(3,4-difluorophenyl)isoxazolidine-2-yl)pyrimidine-4-yl)amino)-2-((2-(dimethylamino)ethyl)(methyl)amino)-4-methoxyphenyl) acrylamide] | A (GI50 < 50 nM)
13 | C=CC(=O)Nc1cc(Nc2cc(N3OCC[C@@H]3c3cccc(Cl)c3)ncn2)c(OC)cc1N1CCN(C(C)=O)CC1 [compound 464, N-(2-(4-acetylpiperazine-1-yl)-5-((6-((R)-3-(3-chlorophenyl)isoxazolidine-2-yl)pyrimidine-4-yl)amino)-4-methoxyphenyl) acrylamide] | A (GI50 < 50 nM)
14 | C=CC(=O)Nc1cc(Nc2cc(N3OCC[C@@H]3c3cccc(F)c3F)ncn2)c(OC)cc1N1CCC(N2CC[C@H](N(C)C)C2)CC1 [compound 340, N-(5-((6-((R)-3-(2,3-difluorophenyl)isoxazolidine-2-yl)pyrimidine-4-yl)amino)-2-(4-((S)-3-(dimethylamino)pyrolidine-1-yl)piperidine-1-yl)-4-methoxyphenyl) acrylamide] | A (GI50 < 50 nM)
15 | C=CC(=O)Nc1cc(Nc2cc(N3OCC[C@@H]3c3cc(F)cc(F)c3)ncn2)c(OC)cc1N1CCC(N2CCN(C3CC3)C[C@@H]2C)CC1 [Example 111, N-(2-(4-((S)-4-cyclopropyl-2-methylpiperazine-1-yl)piperidine-1-yl)-5-((6-((R)-3-(3,5-difluorophenyl)isoxazolidine-2-yl)pyrimidine-4-yl)amino)-4-methoxyphenyl) acrylamide] | A (GI50 < 50 nM)

Results, then the compound that gave them:

Row | Ba/F3 (NPH) Activity | Compound
16 | A (GI50 < 50 nM) | C=CC(=O)Nc1cc(Nc2cc(N3OCC[C@@H]3c3ccc(F)c(F)c3)ncn2)c(OC)cc1N1CCC(N2CCN(C(C)=O)CC2)CC1 [compound 544, N-(2-(4-(4-acetylpiperazine-1-yl)piperidine-1-yl)-5-((6-((R)-3-(3,4-difluorophenyl)isoxazolidine-2-yl)pyrimidine-4-yl)amino)-4-methoxyphenyl) acrylamide]
17 | A (GI50 < 50 nM) | C=CC(=O)Nc1cc(Nc2cc(N3OCC[C@@H]3c3cccc(F)c3)ncn2)c(OC)cc1N1CCN(C2COC2)CC1 [compound 792, N-(5-((6-((R)-3-(3-fluorophenyl)isoxazolidine-2-yl)pyrimidine-4-yl)amino)-4-methoxy-2-(4-(oxetane-3-yl)piperazine-1-yl)phenyl) acrylamide]
18 | A (GI50 < 50 nM) | C=CC(=O)Nc1cc(Nc2cc(N3OCC[C@@H]3c3cccc(F)c3Cl)ncn2)c(OC)cc1N1CCN(CC)CC1 [compound 559, N-(5-((6-((R)-3-(2-chloro-3-fluorophenyl)isoxazolidine-2-yl)pyrimidine-4-yl)amino)-2-(4-ethylpiperazine-1-yl)-4-methoxyphenyl) acrylamide]
19 | B (50 nM ≤ GI50 < 500 nM) | C=CC(=O)Nc1cc(Nc2cc(N3OCC[C@@H]3c3ccc(Cl)c(Cl)c3)ncn2)c(OC)cc1N1CCC(N2CCN(C3CC3)CC2)CC1 [compound 932, N-(2-(4-(4-cyclopropylpiperazine-1-yl)piperidine-1-yl)-5-((6-((R)-3-(3,4-dichlorophenyl)isoxazolidine-2-yl)pyrimidine-4-yl)amino)-4-methoxyphenyl) acrylamide]
20 | A (GI50 < 50 nM) | C=CC(=O)Nc1cc(Nc2cc(N3OCC[C@@H]3c3ccc(Cl)cc3)ncn2)c(OC)cc1N1CCC(N2C[C@@H](C)O[C@@H](C)C2)CC1 [compound 868, N-(5-((6-((R)-3-(4-chlorophenyl)isoxazolidine-2-yl)pyrimidine-4-yl)amino)-2-(4-((2S,6R)-2,6-dimethylmorpholino)piperidine-1-yl)-4-methoxyphenyl) acrylamide]
21 | A (GI50 < 50 nM) | C=CC(=O)Nc1cc(Nc2cc(N3OCC[C@@H]3c3cc(F)cc(F)c3)ncn2)c(OC)cc1N1CCN(C)C[C@H]1C [compound 918, N-(5-((6-((R)-3-(3,5-difluorophenyl)isoxazolidine-2-yl)pyrimidine-4-yl)amino)-2-((R)-2,4-dimethylpiperazine-1-yl)-4-methoxyphenyl) acrylamide]
22 | A (GI50 < 50 nM) | C=CC(=O)Nc1cc(Nc2cc(N3OCC[C@@H]3c3cccc(Cl)c3C)ncn2)c(OC)cc1N(C)CCN(C)C [compound 583, N-(5-((6-((R)-3-(3-chloro-2-methylphenyl)isoxazolidine-2-yl)pyrimidine-4-yl)amino)-2-((2-(dimethylamino)ethyl)(methyl)amino)-4-methoxyphenyl) acrylamide]
23 | B (50 nM ≤ GI50 < 500 nM) | C=CC(=O)Nc1cc(Nc2cc(N3OCC[C@@H]3c3cccc(F)c3)ncn2)c(OC)cc1-n1ccnc1C [compound 861, N-(5-((6-((R)-3-(3-fluorophenyl)isoxazolidine-2-yl)pyrimidine-4-yl)amino)-4-methoxy-2-(2-methyl-1H-imidazole-1-yl)phenyl)acrylamide]
24 | A (GI50 < 50 nM) | C=CC(=O)Nc1cc(Nc2cc(N3OCC[C@@H]3c3cccc(F)c3Cl)ncn2)c(OC)cc1N1CCC(N2CCN(C(C)C)CC2)CC1 [compound 661, N-(5-((6-((R)-3-(2-chloro-3-fluorophenyl)isoxazolidine-2-yl)pyrimidine-4-yl)amino)-2-(4-(4-isopropylpiperazine-1-yl)piperidine-1-yl)-4-methoxyphenyl) acrylamide]
